From US20030134859A1 (SANKYO COMPANY, LIMITED, priority 2000, published 2003)

Experiments:
KK mice = assay: Plasma glucose lowering effects in hyperglycemic KK mice; assay type: in vivo, mouse; conditions: male KK mice, 0.3 weight % in food for 1 week
Description: Unless otherwise described, mice were bred individually, and food and water were taken ad libitum in the following experiments. For this, F2 food powder (Funahashi Farm) was used. Plasma glucose level in the blood collected from the tail vein of a mouse with a heparin-coated glass tube was determined with the Glucoloader (A&T Corp.).
Male KK mice (purchased from Clea Japan, Inc) were purchased at 6 weeks old and were bred until 19 weeks old through an acclimatisation period and test period. The plasma glucose level of each mouse was determined and the occurrence of hyperglycemia in the mice was confrrmed. The animals with a plasma glucose level of 350 mg/dl and higher were screened and the animals for use in the experiment were selected. The selected mice were divided into a control group and a test compound treated group (n=6/group) matched for body weights and plasma glucose levels.
In the control group, conventional food powder was given-to each mouse, while in the test compound-treated group, the food comprising the food powder (F2) mixed with the test compound (final concentration: 0.3 weight %) was given to each mouse. The mice in both groups were bred for 1 week.
One week after the treatment, the blood glucose level was determined.

lenses = assay: Cataract assessment: opacity of cultured lenses exposed to hydrogen peroxide; set-up: species or system rat; conditions: 100 nM test compound with 5 mM hydrogen peroxide; 24 hr; clear: 0, slightly opaque: 1, moderately opaque: 2
Description: The lenses were isolated from Sprague-Dawley rats (male, purchased from SLC Japan), and the lenses were pre-cultured in a medium (Medium-199: GIBCO BRL) for 3 hr and the lenses maintaining transparency were selected and used in the experiment. The crystalline lenses were cultured for 24 hr in the following 3 groups; 1) in Medium-199 (3 mL), 2) in Medium-199 (3 mL) containing hydrogen peroxide (final concentration: 5 mM) and 3) in Medium-199 (3 mL) containing the test compound (final concentration: 100 nM), DMSO (final concentration: 0.1% v/v) and hydrogen peroxide (final concentration: 5 mM). After finalising culturing, the opacity of the lens was scored based on the following criteria: clear: 0, slightly opaque: 1, moderately opaque: 2. Thus the improving effect of the test compound on cataracts was assessed.

ABCA1 mRNA = assay: Quantitative analysis of ABCA1 mRNA (TaqMan PCR) in RAW264.7 cells; assay type: cell-based, mouse; conditions: 100 nM test compound, 24 hr, normalised to β-actin, DMSO = 100
Description: The mouse monocyte/macrophage cell line, RAW264.7 (ATCC TIB71) was purchased from Dainippon Pharmaceutical Co., Ltd. As the medium, the Dulbecco's modified Eagle's medium (DMEM medium; GIBCO, Cat. No. 11995-040) containing bovine fetal serum (the final concentration: 10% (v/v), MOREGATE, lot No. 474030), penicillin G (the final concentration: 50 units/mL, GIBCO) and streptomycin (the final concentration: 20 μg/mL, GIBCO) was used.
The culture of RAW264.7 cells was carried out in a CO2 incubator (37° C., 95% R.H., 5% of CO2).
A 2 ml volume of RAW264.7 cells suspension (1×10^6 cells/mL) was plated in each well of a 6-well plate (2×10^6 cells/well) and the cells were incubated for 2 hr in a CO2 incubator. The test compounds dissolved in DMSO were diluted with DMEM medium by 20 times, and were added to the wells at a volume of 4 μL/well (final concentration of the test compound: 100 nM). As the control, the DMSO solution was diluted with the DMEM medium by 20 times, and was added to the wells at the volume of 4 μL/well. After the cells were cultured in a CO2 incubator for 24 hr, the medium was removed and the total RNA was purified by using an RNeasy Mini Kit (Qiagen), according to the protocol attached. The concentration of the RNA in the samples obtained was calculated from absorbance at 260 nm (A260=1=40 μg/ml). Six (6) μg of total RNA were diluted with RNAase-free water so as to be 22.6 μL, which was heated at 65° C. for 10 min, and then was cooled on ice. The RNA in the solution was used as the template, and the cDNA was synthesized by using a First-strand cDNA Synthesis Kit (Amersham Pharmacia Biotech). In this reaction, a solution was prepared having the following composition and was reacted at 37° C. for 1 hr.
After the reaction, 3 μL of soution were collected from each of the reaction mixtures of the test compound-treated cell samples and that of the control cell samples. The mixed solution was used as the standard solution. The standard solution and each reaction solution were purified with a Chroma Spin-100+DEPC-H2O Column according to the protocol attached, and they were used as the template for TaqMan PCR (Template). In order to draw the calibration curve, the standard solution was diluted by every 5 times for 5 steps and each solution was used for TaqMan PCR. TaqMan PCR was carried out in ABCA1 and β-actin. As Primers for use in the TaqMan PCR, 4 oligonucleotides (abca1 forward (S3), abca1 reverse (AS3), β-actin forward (S4) and β-actin reverse (AS4)) were designed which are shown in sequences No. 5 to 8 in the sequence table described later. The synthesis and purification of these 4 oligomers was ordered from Amersham Pharmacia Biotech Co.
As FAM-TAMRA labelled TaqMan Probe, 2 kinds of oligonucleotides (abca1 (p1) and β-actin (p2)) were designed and were ordered from Applied Biosystems Co. to synthesize and purify.
The following reaction mixture of ABCA1 or β-actin was divided into 2 wells of a MicroAmp Optical 96-well Reaction Plate (Applied Biosystem Co.). TaqMan Universal PCR Master Mix was purchased from Applied Biosystem Co.
The plate was covered with a MicroAmp Optical Cap (Applied Biosystems Co.), and TaqMan PCR was carried out by using an ABI PRISM 7,700 Sequence Detection System (Applied Biosystem Co.) under the following conditions:
An analysis was made according to the procedures described in the manual of Sequence Detection Software (Applied Biosystem Co.) and the increased rate of ABCA1 mRNA due to the test compound was calculated based on the following equation.
A: Amount of the ABCA1 mRNA in the presence of the test compound
B: Amount of the β-actin mRNA in the presence of the test compound
C: Amount of the ABCA1 mRNA in the presence of DMSO
D: Amount of the β-actin mRNA in the presence of DMSO
Increase Rate (%) of ABCA1 mRNA=(A/B)/(C/D)×100

O=C(Nc1ccc(OC(F)(F)F)cc1)c1cc([N+](=O)[O-])ccc1Cl [Example 18, N-(4-Trifluoromethyloxyphenyl)-(2-chloro-5-nitrophenyl)carboxamide]
plasma glucose on Day 7 (KK mice; n=6/group): 315 ± 14
% of inhibition (vs. control) (KK mice; plasma glucose on Day 7): 55%

Cc1c(C)c2c(c(C)c1O)C(=O)CC(C)(COc1ccc(NC(=O)c3cc([N+](=O)[O-])ccc3Cl)cc1)O2 (centres unmarked) [Example 92, N-[4-(6-Hydroxy-2,5,7,8-tetramethyl-4-oxochroman-2-ylmethoxy)phenyl]-(2-chloro-5-nitrophenyl)carboxamide]
opacity of the lens (average score) (lenses): 1.0

CCN(CC)c1ccc(-c2ccc(NC(=O)c3cc([N+](=O)[O-])ccc3Cl)cc2)cc1 [Example 217, N-[4-[4-(N,N-Diethylamino)phenyl]phenyl]-(2-chloro-5-nitrophenyl)carboxamide]
Rate of Increase (%) of ABCA1 mRNA (ABCA1 mRNA): 187.0%

CCN(C)c1ccc(-c2ccc(NC(=O)c3cc([N+](=O)[O-])ccc3Cl)cc2)cc1 [Example 218, N-[4-[4-(N-Ethyl-N-methylamino)phenyl]phenyl]-(2-chloro-5-nitrophenyl)carboxamide]
Rate of Increase (%) of ABCA1 mRNA (ABCA1 mRNA): 190.0%
